Here are results for one compound from EP4257135A1, “BENZIMIDAZOLE DERIVATIVES FOR PULMONARY ARTERIAL HYPERTENSION” (Justus-Liebig-Universität Gießen, priority 2022, dated 2023).

The assay has as its system PAH-PCLS. Put plainly: Ex vivo precision-cut lung slices (PCLS) from PAH lungs, medial wall thickness. As to conditions: PCLS from human PAH lungs; 200 µM on days 2 and 6, fixed day 10; vessels 20-150 µm; vs DMSO. Type of assay: cell-based. The source says:
Lungengewebeproben wurden von Patienten mit IPAH entnommen. Aus den mit 3% niedrigschmelzender Agarose gefüllten Lungenproben von Patienten mit IPAH wurden mit einem Vibratom (Leica Biosystems) Gewebeschnitte (400 µm dick) angefertigt. Die Lungengewebeschnitte wurden in DMEM-GlutaMAX-Medium mit 10 % fetalem Kälberserum, 1 % Penicillin/Streptomycin und 0,1 % Amphotericin B (Thermo Fisher Scientific) kultiviert, und die Behandlung wurde am zweiten Tag eingeleitet. Die Substanz SGC-CBP30 wurde in einer Konzentration von 200 µM an den Tagen 2 und 6 verabreicht. Am 10. Tag wurde das Gewebe in 4% Paraformaldehyd (Roti-Histofix; Carl Roth) fixiert und in Paraffin eingebettet. Die mediale Wanddicke wurde in allen Gefäßen mit einer Größe von 20-150 µm in den Lungenschnitten gemessen.
Das therapeutische Potenzial der EP300/CREBBP-Hemmung durch die Substanz SGC-CBP30 wurde untersucht. Dazu wurde die Wirksamkeit auf PAH-FBs und PAH-SMCs geprüft, die aus den Lungenarterien von menschlichen PAH-Patienten und aus den Lungenarterien von Ratten mit MCT-PAH (Rattenmodell mit Monocrotalin) isoliert wurden. […] Die Wirkung der EP300-Hemmung auf das vaskuläre Remodelling wurde durch Quantifizierung der prozentualen medialen Wanddicke in den mit der Substanz SGC-CBP30 inkubierten PCLS im Vergleich zu den mit DMSO inkubierten Kontrollen bewertet. […]

With `COc1ccc(CCc2nc3cc(-c4c(C)noc4C)ccc3n2C[C@H](C)N2CCOCC2)cc1Cl` [SGC-CBP30, 2-[2-(3-Chloro-4-methoxyphenyl)ethyl]-5-(3,5-dimethyl-1,2-oxazol-4-yl)-1-[(S)-2-(morpholin-4-yl)propyl]-1H-benzimidazole], the “mediale Wanddicke der umgestalteten PAs” value is reported as “signifikante Verringerung”.
